Converted amounts (≈) assume the structure as drawn. “And” between values parts separate entries of the source, which are not always exact repeats. Equal values may be shown once.
Legend:
[1] = DPPH assay (antioxidant potential); settings: DPPH 100 μM; 30 minutes at 37 °C; triplicate
Procedure: DPPH assay as reported earlier was used to determine the antioxidant potential of newly synthesised compound.[46] For experiment, […] (100 μM) solution was mixed with 5 μl of sample compounds and ascorbic acid (positive control) at concentration of 100, 50 and 25 μM in 96-well plate respectively. Plate was incubated in dark for 30 minutes at 37 °C and then absorbance was measured at 515 nm using Elx800 microtiter plate reader. The experiment was performed in triplicate and percentage scavenging was calculated as following:Percentage scavenging (%) = [1 − absorbance of sample/absorbance of control] × 100

Bacillus subtilis = experiment: Antibacterial disc diffusion assay; type: cell-based; settings: for MIC / zone of inhibition at 100 µM: Bacillus subtilis
Procedure: (§1) Anti-bactericidal activity of the compounds was determined by using disc diffusion method. […] The assay was performed in triplicate and Kanamycin was used as positive control. […] According to Yildiz et al.[39] the antibacterial activity of a substitution connected to a biologically active molecule may be increased.
(§2) Disc diffusion assay was used to determine the antibacterial potential of newly synthesised compounds as reported earlier.[45] For experiment, 1% inoculum of Bacillus subtilis, Staphylococcus aureus, Escherichia coli and Pseudomonas aeruginosa was transferred to autoclaved nutrient agar media (23 g l^−1) respectively. Then media were poured in respective plates and allowed to solidify. Samples (100 μM) and Kanamycin drug (10 μM) was loaded on sterile paper disc (5 mm) and these discs were placed on Petriplates at appropriate distance. Plates were incubated for 24 hours at 37 °C and zone of inhibition were measured using Vernier calliper.

Escherichia coli = experiment: Antibacterial disc diffusion assay; type: cell-based
Procedure: as §1, §2

Pseudomonas aeruginosa = experiment: Antibacterial disc diffusion assay; type: cell-based
Procedure: as §1, §2

Staphylococcus aureus = experiment: Antibacterial disc diffusion assay; type: cell-based
Procedure: as §1, §2

α-amylase = type: biochemical; settings: starch substrate; pH 6.8; 30 minutes at 50 °C; triplicate
Procedure: α-Amylase inhibition assay was performed to calculate the enzyme inhibition potential of newly synthesised compounds.[48] […] In blank 40 μl starch and 50 μl phosphate buffer was added. […] Then absorbance was measured at 540 nm using Elx800 microtiter plate reader.

[2] = test system: Bacillus subtilis, Staphylococcus aureus, Escherichia coli and Pseudomonas aeruginosa; experiment: Antibacterial disc diffusion assay, all four tested strains; type: cell-based
Procedure: as §1, §2

urease = urease (Canavalia ensiformis, UniProt P07374); settings: read-out: Urease IC50; 100 mM urea; pH 8.2; 37 °C; triplicate
urease, sequence (P07374 whole entry, looked up, the tested form may be a part): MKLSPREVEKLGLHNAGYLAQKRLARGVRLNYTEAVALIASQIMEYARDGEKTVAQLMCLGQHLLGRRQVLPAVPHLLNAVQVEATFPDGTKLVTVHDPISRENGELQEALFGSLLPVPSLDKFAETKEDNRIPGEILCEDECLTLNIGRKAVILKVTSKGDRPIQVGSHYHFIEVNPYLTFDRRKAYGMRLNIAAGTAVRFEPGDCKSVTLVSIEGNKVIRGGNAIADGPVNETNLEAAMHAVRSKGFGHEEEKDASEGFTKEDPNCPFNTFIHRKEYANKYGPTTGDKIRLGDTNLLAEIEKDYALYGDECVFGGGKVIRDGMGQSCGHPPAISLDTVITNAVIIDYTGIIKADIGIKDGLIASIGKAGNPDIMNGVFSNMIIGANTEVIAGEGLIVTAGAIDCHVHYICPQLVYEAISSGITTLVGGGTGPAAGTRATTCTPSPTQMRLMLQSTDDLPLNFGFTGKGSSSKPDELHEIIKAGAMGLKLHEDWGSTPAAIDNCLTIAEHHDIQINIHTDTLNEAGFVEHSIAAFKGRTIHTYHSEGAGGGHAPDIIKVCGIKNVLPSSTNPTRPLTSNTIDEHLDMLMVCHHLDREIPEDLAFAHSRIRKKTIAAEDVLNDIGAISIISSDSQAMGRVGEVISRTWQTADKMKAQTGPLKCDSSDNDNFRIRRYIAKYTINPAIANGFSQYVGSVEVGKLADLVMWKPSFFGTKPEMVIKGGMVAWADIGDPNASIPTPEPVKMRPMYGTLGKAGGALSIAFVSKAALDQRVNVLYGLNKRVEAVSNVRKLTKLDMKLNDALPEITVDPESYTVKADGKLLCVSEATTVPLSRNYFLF

[3] = disc diffusion, samples 100 μM, Kanamycin 10 μM on disc, 24 hours at 37 °C

Row | Structure (SMILES) | IC50 [1] | IC50 (α-amylase) [µM] | antibacterial activity against tested bacterial strains [2] | melting point [°C] | also measured
1 | O=C1O[C@H]([C@@H](O)CO)C(O)=C1O [Ascorbic acid, reference compound] | 0.892 µM and 0.89 µM | – | – | – | –
2 | Cc1nc(N)sc1C(=O)NC12CC3CC(CC(C3)C1)C2 [Compound 6a, N-(Adamantan-1-yl)-2-amino-4-methylthiazole-5-carboxamide] | 157 ± 10.3 µM | 118.3 ± 0.71 | significant antibacterial activity | 256 to 257 | MIC (Bacillus subtilis): 50 µM (≈ 14.6 µg/mL); zone of inhibition at 100 µM (Bacillus subtilis; [3]): 13 mm; MIC (Escherichia coli; Escherichia coli): 50 µM (≈ 14.6 µg/mL); zone of inhibition at 100 µM (Escherichia coli; Escherichia coli, disc diffusion, samples 100 μM, Kanamycin 10 μM on disc, 24 hours at 37 °C): 11 mm; MIC (Pseudomonas aeruginosa; Pseudomonas aeruginosa): 50 µM (≈ 14.6 µg/mL); zone of inhibition at 100 µM (Pseudomonas aeruginosa; Pseudomonas aeruginosa, disc diffusion, samples 100 μM, Kanamycin 10 μM on disc, 24 hours at 37 °C): 10 mm; MIC (Staphylococcus aureus; Staphylococcus aureus): 75 µM (≈ 21.9 µg/mL); zone of inhibition at 100 µM (Staphylococcus aureus; Staphylococcus aureus, disc diffusion, samples 100 μM, Kanamycin 10 μM on disc, 24 hours at 37 °C): 8 mm
3 | Cc1nc(Nc2ccc([N+](=O)[O-])cc2)sc1C(=O)NC12CC3CC(CC(C3)C1)C2 [Compound 6b, N-(Adamantan-1-yl)-4-methyl-2-((4-nitrophenyl)amino)thiazole-5-carboxamide] | 108 ± 1.93 µM | > 100 | no antibacterial activity | 300 to 303 | –
4 | Cc1nc(Nc2ccc(Br)cc2)sc1C(=O)NC12CC3CC(CC(C3)C1)C2 [Compound 6c, N-(Adamantan-1-yl)-4-methyl-2-((4-bromophenyl)amino)thiazole-5-carboxamide] | 126 ± 2.66 µM | > 100 | activity against one bacterial strain out of four | 277 to 280 | MIC (Bacillus subtilis): 75 µM (≈ 33.5 µg/mL); zone of inhibition at 100 µM (Bacillus subtilis; [3]): 7 mm
5 | COc1ccc(Nc2nc(C)c(C(=O)NC34CC5CC(CC(C5)C3)C4)s2)cc1 [Compound 6d, N-(Adamantan-1-yl)-4-methyl-2-((4-methoxyphenyl)amino)thiazole-5-carboxamide] | 19.2 ± 0.37 µM | 97.4 ± 1.53 | no antibacterial activity | 226 to 229 | –
6 | COc1ccccc1Nc1nc(C)c(C(=O)NC23CC4CC(CC(C4)C2)C3)s1 [Compound 6e, N-(Adamantan-1-yl)-4-methyl-2-((2-methoxyphenyl)amino)thiazole-5-carboxamide] | 110.3 ± 0.76 µM | > 100 | no antibacterial activity | 210 to 212 | α-Amylase IC50 (α-amylase): inactive
7 | Cc1nc(Nc2cccc(Cl)c2)sc1C(=O)NC12CC3CC(CC(C3)C1)C2 [Compound 6f, N-(Adamantan-1-yl)-4-methyl-2-((3-chlorophenyl)amino)thiazole-5-carboxamide] | 136.7 ± 1.33 µM | > 100 | no antibacterial activity | 253 to 254 | –
8 | Cc1nc(Nc2ccccc2Cl)sc1C(=O)NC12CC3CC(CC(C3)C1)C2 [Compound 6g, N-(Adamantan-1-yl)-4-methyl-2-((2-chlorophenyl)amino)thiazole-5-carboxamide] | 122 ± 6.54 µM | > 100 | activity against one bacterial strain out of four | 202 to 203 | MIC (Bacillus subtilis): 75 µM (≈ 30.1 µg/mL); zone of inhibition at 100 µM (Bacillus subtilis; [3]): 7 mm
9 | Cc1nc(Nc2ccc(NS(C)(=O)=O)c(Oc3ccccc3)c2)sc1C(=O)NC12CC3CC(CC(C3)C1)C2 [Compound 6h, N-Adamantyl-4-methyl-2-((4-(methylsulfonamido)-3-phenoxyphenyl)amino) thiazole-5-carboxamide] | 64.1 ± 0.71 µM | > 100 | – | 156 to 160 | –
10 | Cc1nc(Nc2cccc(F)c2)sc1C(=O)NC12CC3CC(CC(C3)C1)C2 [Compound 6i, N-Adamantyl-2-((3-fluorophenyl)amino)-4-methylthiazole-5-carboxamide] | 131 ± 1.11 µM | > 100 | – | 220 to 225 | –
11 | Cc1nc(NC23CC4CC(CC(C4)C2)C3)sc1C(=O)NC12CC3CC(CC(C3)C1)C2 [Compound 6j, N-Adamantanyl-2-(((3s,5s,7s)-adamantan-1-yl)amino)-4-methylthiazole-5-carboxamide] | 137.9 ± 0.9 µM | > 100 | – | 250 to 253 | –
12 | NC[C@H]1O[C@H](O[C@H]2[C@H](O)[C@@H](O[C@H]3O[C@H](CO)[C@@H](O)[C@H](N)[C@H]3O)[C@H](N)C[C@@H]2N)[C@H](O)[C@@H](O)[C@@H]1O [Kanamycin, reference compound] | – | – | – | – | MIC Bacillus subtilis (Bacillus subtilis): MIC = 25 μM; Antibacterial zone of inhibition Bacillus subtilis (Bacillus subtilis; [3]): 21 mm; MIC Escherichia coli (Escherichia coli): MIC = 25 μM; Antibacterial zone of inhibition Escherichia coli (Escherichia coli; [3]): 20 mm; MIC Pseudomonas aeruginosa (Pseudomonas aeruginosa): MIC = 20 μM; Antibacterial zone of inhibition Pseudomonas aeruginosa (Pseudomonas aeruginosa; [3]): 22 mm; MIC Staphylococcus aureus (Staphylococcus aureus): MIC = 20 μM; Antibacterial zone of inhibition Staphylococcus aureus (Staphylococcus aureus; [3]): 24 mm
13 | NC(N)=S [Thiourea] | – | – | – | – | IC50 (urease): 1.33 µM
